Measurements from patent US20230002357A1, “7-PYRIMIDINE-2-YL-OXY-INDAZOLE DERIVATIVES AND THEIR USE AS HERBICIDES” (SYNGENTA CROP PROTECTION AG, priority 2019, published 2023).

Tests used:
Type in all cases: in vivo
Details in all cases: 250 g/ha, evaluated after 13 days
IPOHE [1] = test: Post-emergence Test, glasshouse, IPOHE
Procedure, shortened: (§1)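 Percent plant damage was rated 13 days after treatment on a five-point scale (1 = 0–20% up to 5 = 81–100%). Compound was sprayed at 250 g/ha in acetone/water with 0.5% Tween 20, either one day post-sowing or on 8-day-old plants. Plants were grown at 24/16 °C day/night, 14 h light, 65% humidity.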

[2] = system: Amaranthus retoflexus (AMARE); test: Post-emergence Test, glasshouse, AMARE
Procedure, shortened: as §1

ABUTH [3] = test: Pre-emergence Test, glasshouse, ABUTH
Procedure, shortened: as §1

[4] = system: Echinochloa crus-galli (ECHCG); test: Pre-emergence Test, glasshouse, ECHCG
Procedure, shortened: as §1

IPOHE [5] = test: Pre-emergence Test, glasshouse, IPOHE
Procedure, shortened: as §1

ABUTH [6] = test: Post-emergence Test, glasshouse, ABUTH
Procedure, shortened: as §1

[7] = system: Amaranthus retoflexus (AMARE); test: Pre-emergence Test, glasshouse, AMARE
Procedure, shortened: as §1

[8] = system: Echinochloa crus-galli (ECHCG); test: Post-emergence Test, glasshouse, ECHCG
Procedure, shortened: as §1

Setaria faberi (SETFA) [9] = test: Post-emergence Test, glasshouse, SETFA
Procedure, shortened: as §1

Setaria faberi (SETFA) [10] = test: Pre-emergence Test, glasshouse, SETFA
Procedure, shortened: as §1

Compound | percentage damage caused to the plant, five-point scale, IPOHE (IPOHE [1]) | percentage damage caused to the plant, five-point scale, AMARE [2] | percentage damage caused to the plant, five-point scale, ABUTH (ABUTH [3]) | percentage damage caused to the plant, five-point scale, ECHCG [4] | percentage damage caused to the plant, five-point scale, IPOHE (IPOHE [5]) | percentage damage caused to the plant, five-point scale, ABUTH (ABUTH [6]) | percentage damage caused to the plant, five-point scale, AMARE [7] | percentage damage caused to the plant, five-point scale, ECHCG [8] | percentage damage caused to the plant, five-point scale, SETFA (Setaria faberi (SETFA) [9]) | percentage damage caused to the plant, five-point scale, SETFA (Setaria faberi (SETFA) [10])
FC(F)(F)OCCn1nc(Cl)c2cccc(Oc3ncc(Cl)cn3)c21 [Compound 1.052] | 3 (3=41-60%) | 5 (5=81-100%) | 3 (3=41-60%) | 4 (4=61-80%) | 1 (1=0-20%) | 5 (5=81-100%) | 5 (5=81-100%) | 4 (4=61-80%) | 3 (3=41-60%) | 5 (5=81-100%)
C=CCCn1nc(Cl)c2cccc(Oc3ncc(Cl)cn3)c21 [Compound 1.054] | 2 (2=21-40%) | 4 (4=61-80%) | 1 (1=0-20%) | 4 (4=61-80%) | 1 (1=0-20%) | 4 (4=61-80%) | 4 (4=61-80%) | 3 (3=41-60%) | 2 (2=21-40%) | 5 (5=81-100%)
CCCCCn1nc(Cl)c2cccc(Oc3ncc(Cl)cn3)c21 [Compound 1.055] | 2 (2=21-40%) | 4 (4=61-80%) | 1 (1=0-20%) | 4 (4=61-80%) | 1 (1=0-20%) | 3 (3=41-60%) | 4 (4=61-80%) | 3 (3=41-60%) | 3 (3=41-60%) | 4 (4=61-80%)
CC(C)CCn1nc(Cl)c2cccc(Oc3ncc(Cl)cn3)c21 [Compound 1.056] | 3 (3=41-60%) | 4 (4=61-80%) | 1 (1=0-20%) | 3 (3=41-60%) | 1 (1=0-20%) | 3 (3=41-60%) | 4 (4=61-80%) | 2 (2=21-40%) | 2 (2=21-40%) | 4 (4=61-80%)
CC(C)Cn1nc(Cl)c2cccc(Oc3ncc(Cl)cn3)c21 [Compound 1.057] | 1 (1=0-20%) | 3 (3=41-60%) | 2 (2=21-40%) | 2 (2=21-40%) | 1 (1=0-20%) | 2 (2=21-40%) | 2 (2=21-40%) | 1 (1=0-20%) | 1 (1=0-20%) | 4 (4=61-80%)
CCCCCCn1nc(Cl)c2cccc(Oc3ncc(Cl)cn3)c21 [Compound 1.058] | 2 (2=21-40%) | 4 (4=61-80%) | 2 (2=21-40%) | 3 (3=41-60%) | 1 (1=0-20%) | 3 (3=41-60%) | 2 (2=21-40%) | 3 (3=41-60%) | 2 (2=21-40%) | 3 (3=41-60%)
C#CCn1nc(Cl)c2cccc(Oc3ncc(Cl)cn3)c21 [Compound 1.059] | 1 (1=0-20%) | 4 (4=61-80%) | 2 (2=21-40%) | 2 (2=21-40%) | 1 (1=0-20%) | 2 (2=21-40%) | 2 (2=21-40%) | 1 (1=0-20%) | 1 (1=0-20%) | 2 (2=21-40%)
COCCCn1nc(Cl)c2cccc(Oc3ncc(Cl)cn3)c21 [Compound 1.060] | 2 (2=21-40%) | 3 (3=41-60%) | 4 (4=61-80%) | 4 (4=61-80%) | 2 (2=21-40%) | 3 (3=41-60%) | 4 (4=61-80%) | 4 (4=61-80%) | 3 (3=41-60%) | 4 (4=61-80%)
CCCn1nc(Cl)c2cccc(Oc3ncc(Cl)cn3)c21 [Compound 1.061] | 2 (2=21-40%) | 4 (4=61-80%) | 1 (1=0-20%) | 4 (4=61-80%) | 1 (1=0-20%) | 2 (2=21-40%) | 3 (3=41-60%) | 2 (2=21-40%) | 2 (2=21-40%) | 5 (5=81-100%)
FCCn1nc(Cl)c2cccc(Oc3ncc(Cl)cn3)c21 [Compound 1.062] | 1 (1=0-20%) | 3 (3=41-60%) | 1 (1=0-20%) | 2 (2=21-40%) | 1 (1=0-20%) | 2 (2=21-40%) | 4 (4=61-80%) | 1 (1=0-20%) | 1 (1=0-20%) | 4 (4=61-80%)
FC(F)Cn1nc(Cl)c2cccc(Oc3ncc(Cl)cn3)c21 [Compound 1.063] | 2 (2=21-40%) | 4 (4=61-80%) | 2 (2=21-40%) | 2 (2=21-40%) | 1 (1=0-20%) | 3 (3=41-60%) | 3 (3=41-60%) | 2 (2=21-40%) | 2 (2=21-40%) | 2 (2=21-40%)
